The source made the active and inactive calls. The rule behind the calls is not given here.
Species: Bos taurus
Assay: Inhibition of calf thymus topoisomerase 1 relative to Hoechst 33342

Row | Structure (SMILES) | Ratio | inhibition
1 | CCCc1ccc2[nH]c(-c3ccc4[nH]c(-c5ccc6[nH]cnc6c5)nc4c3)nc2c1 | 0.5 | –
2 | CCCc1nc2ccc(-c3nc4ccc(-c5nc6ccc(Br)cc6[nH]5)cc4[nH]3)cc2[nH]1 | 1 | –
3 | Cc1cccc(-c2nc3cc(-c4nc5cc(N6CCN(C)CC6)ccc5[nH]4)ccc3[nH]2)c1 | 1 | –
4 | Brc1cc2nc(-c3ccc4nc(-c5ccc6nc[nH]c6c5)[nH]c4c3)[nH]c2cc1Br | 1 | –
5 | Oc1nc2ccc(-c3nc4ccc(-c5nc6ccc(Br)cc6[nH]5)cc4[nH]3)cc2[nH]1 | 1 | –
6 | N#Cc1ccc2[nH]c(-c3ccc4[nH]c(-c5cccc6ccccc56)nc4c3)nc2c1 | 10 | –
7 | Clc1nc2ccc(-c3nc4ccc(-c5nc6cc(Br)c(Br)cc6[nH]5)cc4[nH]3)cc2[nH]1 | 1 | –
8 | c1ccc(-c2ccc3[nH]c(-c4ccc5[nH]c(-c6ccc7[nH]nnc7c6)nc5c4)nc3c2)cc1 | 1 | –
9 | c1ccc(-c2ccc3[nH]c(-c4ccc5[nH]c(-c6ccc7nccnc7c6)nc5c4)nc3c2)cc1 | > 100 | –
10 | Clc1ccc2[nH]c(-c3ccc4nc(-c5ccc6nc[nH]c6c5)[nH]c4c3)nc2c1 | 1 | –
11 | N#Cc1ccc2[nH]c(-c3ccc4[nH]c(-c5ccc6[nH]cnc6c5)nc4c3)nc2c1 | 0.1 | –
12 | c1cncc(-c2ccc3[nH]c(-c4ccc5[nH]c(-c6ccc7[nH]cnc7c6)nc5c4)nc3c2)c1 | 2 | –
13 | c1ccc2c(-c3ccc4[nH]c(-c5ccc6[nH]c(-c7ccc8[nH]cnc8c7)nc6c5)nc4c3)cccc2c1 | 10 | –
14 | CN1CCN(c2ccc3[nH]c(-c4ccc5[nH]c(-c6cccc7ccccc67)nc5c4)nc3c2)CC1 | 20 | –
15 | O=[N+]([O-])c1ccc2[nH]c(-c3ccc4nc(-c5ccc6nc[nH]c6c5)[nH]c4c3)nc2c1 | 0.5 | –
16 | FC(F)(F)c1nc2ccc(-c3nc4ccc(-c5nc6ccc(-c7ccc(Cl)cc7)cc6[nH]5)cc4[nH]3)cc2[nH]1 | 1 | –
17 | c1ccc2cc(-c3ccc4[nH]c(-c5ccc6[nH]c(-c7ccc8[nH]cnc8c7)nc6c5)nc4c3)ccc2c1 | 10 | –
18 | NC(=O)c1ccc2[nH]c(-c3ccc4[nH]c(-c5cccc6ccccc56)nc4c3)nc2c1 | 20 | –
19 | CN1CCN(c2ccc3[nH]c(-c4ccc5[nH]c(-c6ccc7ccccc7c6)nc5c4)nc3c2)CC1 | 10 | –
20 | COc1cc2nc(-c3ccc4nc(-c5ccc6nc[nH]c6c5)[nH]c4c3)[nH]c2cc1Br | 2 | –

Row | Structure (SMILES) | Ratio | inhibition
21 | c1ccc(-c2cc3nc(-c4ccc5nc(-c6ccc7nc[nH]c7c6)[nH]c5c4)[nH]c3cc2-c2ccccc2)cc1 | 1 | –
22 | c1nc2ccc(-c3nc4ccc(-c5nc6cc(N7CCCCC7)ccc6[nH]5)cc4[nH]3)cc2[nH]1 | 0.5 | –
23 | Cc1ccc(-c2nc3cc(-c4nc5cc(N6CCN(C)CC6)ccc5[nH]4)ccc3[nH]2)cc1 | 1 | –
24 | c1ccc(-c2ccc3[nH]c(-c4ccc5[nH]c(-c6ccc7[nH]ccc7c6)nc5c4)nc3c2)cc1 | 50 | –
25 | c1ccc(-c2ccc3[nH]c(-c4ccc5[nH]c(-c6ccc7cc[nH]c7c6)nc5c4)nc3c2)cc1 | 5 | –
26 | Brc1ccc2[nH]c(-c3ccc4nc(-c5ccc6nc[nH]c6c5)[nH]c4c3)nc2c1 | 1 | –
27 | Cc1ccccc1-c1nc2cc(-c3nc4cc(N5CCN(C)CC5)ccc4[nH]3)ccc2[nH]1 | 10 | –
28 | COc1cc2nc(-c3ccc4nc(-c5ccc6nc[nH]c6c5)[nH]c4c3)[nH]c2cc1-c1ccccc1 | 0.5 | –
29 | c1ccc(-c2ccc3[nH]c(-c4ccc5[nH]c(-c6ccc7[nH]cnc7c6)nc5c4)nc3c2)nc1 | 3.3 | –
30 | FC(F)(F)c1nc2ccc(-c3nc4ccc(-c5nc6cc(Br)c(Br)cc6[nH]5)cc4[nH]3)cc2[nH]1 | 1 | –
31 | Nc1ccc2[nH]c(-c3ccc4nc(-c5ccc6nc[nH]c6c5)[nH]c4c3)nc2c1 | 1 | –
32 | Cc1cccc(-c2nc3cc(-c4nc5cc(C(N)=O)ccc5[nH]4)ccc3[nH]2)c1 | 100 | –
33 | Oc1ccc2[nH]c(-c3ccc4nc(-c5ccc6nc[nH]c6c5)[nH]c4c3)nc2c1 | 0.5 | –
34 | c1ccc(-c2ccc3[nH]c(-c4ccc5[nH]c(-c6ccc7[nH]cnc7c6)nc5c4)nc3c2)cc1 | 1 | –
35 | Oc1nc2ccc(-c3nc4cc(-c5nc6cc(-c7ccccc7)ccc6[nH]5)ccc4[nH]3)cc2nc1O | 1 | –
36 | Clc1ccc(-c2ccc3[nH]c(-c4ccc5nc[nH]c5c4)nc3c2)cc1 | 4 | –
37 | COc1ccc(-c2nc3cc(-c4nc5cc(-c6nc7cc(C#N)ccc7[nH]6)ccc5[nH]4)ccc3[nH]2)cc1 | 1000 | –
38 | Fc1ccc2[nH]c(-c3ccc4nc(-c5ccc6nc[nH]c6c5)[nH]c4c3)nc2c1 | 0.05 | –
39 | c1ccc2[nH]c(-c3ccc4[nH]c(-c5ccc6[nH]cnc6c5)nc4c3)nc2c1 | 1.1 | –
40 | c1cc(-c2ccc3[nH]c(-c4ccc5[nH]c(-c6ccc7[nH]cnc7c6)nc5c4)nc3c2)ccn1 | 2 | –

Other lines, results leading:

Row | Ratio | inhibition | Structure (SMILES)
41 | 0.05 | – | COc1ccc2[nH]c(-c3ccc4nc(-c5ccc6nc[nH]c6c5)[nH]c4c3)nc2c1
42 | 2000 | – | c1ccc2cc3[nH]c(-c4ccc5nc[nH]c5c4)nc3cc2c1
43 | – | inactive | COc1ccc(-c2nc3cc([N+](=O)[O-])ccc3s2)cc1
44 | 10 | – | N#Cc1ccc2[nH]c(-c3ccc4[nH]c(-c5ccc6ccccc6c5)nc4c3)nc2c1
45 | > 300000 | – | COc1ccc(-c2nc3c([N+](=O)[O-])cccc3[nH]2)cc1
46 | – | inactive | COc1ccc(-c2nc3ccc([N+](=O)[O-])cc3s2)cc1
47 | – | inactive | COc1ccc(-c2nc3ccc([N+](=O)[O-])cc3o2)cc1
48 | 100 | – | NC(=O)c1ccc2[nH]c(-c3ccc4[nH]c(-c5ccc6ccccc6c5)nc4c3)nc2c1
49 | 2 | – | c1ccc2cc(-c3ccc4[nH]c(-c5ccc6nc[nH]c6c5)nc4c3)ccc2c1
50 | > 500 | – | Cc1ccccc1-c1nc2cc(-c3nc4cc(C#N)ccc4[nH]3)ccc2[nH]1
51 | 1000 | – | COc1ccc(-c2nc3cc(-c4nc5cc([N+](=O)[O-])ccc5[nH]4)ccc3[nH]2)cc1
52 | 10 | – | c1ccc(-c2cccc3[nH]c(-c4ccc5nc[nH]c5c4)nc23)cc1
53 | 2.5 | – | COc1ccc(-c2nc3cc(-c4nc5cc(CN(C)C)ccc5[nH]4)ccc3[nH]2)cc1
54 | 300 | – | COc1ccc(-c2nc3cc(C=O)ccc3[nH]2)cc1
55 | 1000 | – | N#Cc1ccc2[nH]c(-c3ccc4[nH]cnc4c3)nc2c1
56 | – | inactive | COc1ccc(-c2cc3ccc([N+](=O)[O-])cc3[nH]2)cc1
57 | 100 | – | COc1ccc(-c2nc3cc(-c4nc5cc(N)ccc5[nH]4)ccc3[nH]2)cc1
58 | > 300000 | – | COc1ccc(-c2nc3cc(CN)ccc3[nH]2)cc1
59 | 100 | – | Cc1ccccc1-c1nc2cc(-c3nc4cc(C(N)=O)ccc4[nH]3)ccc2[nH]1
60 | > 100 | – | N#Cc1ccc2[nH]c(-c3ccc4[nH]c(-c5ccccc5)nc4c3)nc2c1
61 | – | inactive | COc1ccc(-c2cc3cc([N+](=O)[O-])ccc3[nH]2)cc1
62 | 4 | – | Cc1nc2ccc(-c3nc4cc(-c5ccccc5)ccc4[nH]3)cc2[nH]1
63 | 300 | – | COc1ccc(-c2nc3cc([N+](=O)[O-])ccc3[nH]2)cc1
64 | 100 | – | Cc1cccc(-c2nc3cc(-c4nc5cc(C#N)ccc5[nH]4)ccc3[nH]2)c1
65 | 2 | – | c1ccc(-c2ccc3[nH]c(-c4ccc5nc[nH]c5c4)nc3c2)cc1

Row | Ratio | inhibition | Structure (SMILES)
66 | 5 | – | COc1ccc(-c2nc3cc(-c4nc5cc(CCN(C)C)ccc5[nH]4)ccc3[nH]2)cc1
67 | > 300000 | – | COc1ccc(-c2nc3cc(C(=O)O)ccc3[nH]2)cc1
68 | 1 | – | CCCc1nc2ccc(-c3nc4cc(-c5ccccc5)ccc4[nH]3)cc2[nH]1
69 | 4 | – | c1ccc2c(-c3ccc4[nH]c(-c5ccc6nc[nH]c6c5)nc4c3)cccc2c1
70 | – | inactive | COc1ccc(-c2nc3cc([N+](=O)[O-])ccc3o2)cc1
71 | 1 | – | COc1ccc(-c2nc3cc(-c4nc5cc(N6CCN(C)CC6)ccc5[nH]4)ccc3[nH]2)cc1
72 | 40 | – | COc1ccc(-c2nc3ccc(-c4nc5cc(-c6ccccc6)ccc5[nH]4)cc3[nH]2)cc1
73 | 1 | – | CC(C)c1nc2ccc(-c3nc4cc(-c5ccccc5)ccc4[nH]3)cc2[nH]1
74 | 1 | – | CN1CCN(c2ccc3[nH]c(-c4ccc5[nH]c(-c6ccccc6)nc5c4)nc3c2)CC1
75 | > 300000 | – | COc1ccc(-c2nc3cc(C#N)ccc3[nH]2)cc1
76 | 30000 | – | COc1ccc(-c2nc3cc(CO)ccc3[nH]2)cc1
77 | 3.3 | – | COc1ccc(-c2nc3cc(-c4nc5cc(C#N)ccc5[nH]4)ccc3[nH]2)cc1
78 | 2 | – | c1ccc2c(c1)ccc1[nH]c(-c3ccc4nc[nH]c4c3)nc12
79 | 40 | – | c1ccc(-c2ccc3[nH]c(-c4ccc5nc(-c6ccccc6)[nH]c5c4)nc3c2)cc1
80 | 2 | – | CCc1nc2ccc(-c3nc4cc(-c5ccccc5)ccc4[nH]3)cc2[nH]1
81 | 1 | – | Cc1ccc(-c2nc3cc(-c4nc5cc(C#N)ccc5[nH]4)ccc3[nH]2)cc1
82 | 2 | – | COc1ccc(-c2nc3cc(-c4nc5cc(OC6CCN(C)CC6)ccc5[nH]4)ccc3[nH]2)cc1
83 | 1 | – | COc1ccc(-c2ccc3[nH]c(-c4ccc5nc[nH]c5c4)nc3c2)cc1
84 | > 300000 | – | COc1ccc(-c2nc3cc(Br)ccc3[nH]2)cc1
85 | > 300000 | – | COc1ccc(-c2nc3ccccc3[nH]2)cc1
86 | 3000 | – | COc1ccc(-c2nc3cc(C(N)=O)ccc3[nH]2)cc1
87 | 2 | – | COc1ccc(-c2nc3cc(-c4nc5cc(CCCN(C)C)ccc5[nH]4)ccc3[nH]2)cc1
88 | 10 | – | Cc1ccc(-c2nc3cc(-c4nc5cc(C(N)=O)ccc5[nH]4)ccc3[nH]2)cc1
89 | 1000 | – | COc1ccc(-c2nc3cc(-c4nc5cc(N(C)C)ccc5[nH]4)ccc3[nH]2)cc1
90 | 10 | – | NC(=O)c1ccc2[nH]c(-c3ccc4[nH]c(-c5ccccc5)nc4c3)nc2c1

Reference: ChEMBL document CHEMBL1671799, “Modelling topoisomerase I inhibition by minor groove binders” (Bioorg Med Chem, 2011)
